# Test results from ChEMBL document CHEMBL4177539, “Discovery of N-((3R,4R)-4-Fluoro-1-(6-((3-methoxy-1-methyl-1H-pyrazol-4-yl)amino)-9-methyl-9H-purin-2-yl)pyrrolidine-3-yl)acrylamide (PF-06747775) through Structure-Based Drug Design: A High Affinity Irreversible Inhibitor Targeting Oncogenic EGFR Mutants with Selectivity over Wild-Type EGFR” (J Med Chem, 2017).
# Tests used:
# Homo sapiens = species: Homo sapiens; assay: Selectivity index, ratio of IC50 for wild-type EGFR autophosphorylation in human A549 cells to IC50 for EGFR T790M/L858R double mutant autophosphorylation in human H1975 cells; assay type: cell-based
# physchem [1] = conditions: octanol/water
# physchem [2] = conditions: phosphate buffer with glutathione, pH 7.4
# in vitro = conditions: human, liver microsomes
# [3] = molecular target: Epidermal growth factor receptor (Homo sapiens, UniProt P00533)
# Sequence of Epidermal growth factor receptor (P00533 whole entry): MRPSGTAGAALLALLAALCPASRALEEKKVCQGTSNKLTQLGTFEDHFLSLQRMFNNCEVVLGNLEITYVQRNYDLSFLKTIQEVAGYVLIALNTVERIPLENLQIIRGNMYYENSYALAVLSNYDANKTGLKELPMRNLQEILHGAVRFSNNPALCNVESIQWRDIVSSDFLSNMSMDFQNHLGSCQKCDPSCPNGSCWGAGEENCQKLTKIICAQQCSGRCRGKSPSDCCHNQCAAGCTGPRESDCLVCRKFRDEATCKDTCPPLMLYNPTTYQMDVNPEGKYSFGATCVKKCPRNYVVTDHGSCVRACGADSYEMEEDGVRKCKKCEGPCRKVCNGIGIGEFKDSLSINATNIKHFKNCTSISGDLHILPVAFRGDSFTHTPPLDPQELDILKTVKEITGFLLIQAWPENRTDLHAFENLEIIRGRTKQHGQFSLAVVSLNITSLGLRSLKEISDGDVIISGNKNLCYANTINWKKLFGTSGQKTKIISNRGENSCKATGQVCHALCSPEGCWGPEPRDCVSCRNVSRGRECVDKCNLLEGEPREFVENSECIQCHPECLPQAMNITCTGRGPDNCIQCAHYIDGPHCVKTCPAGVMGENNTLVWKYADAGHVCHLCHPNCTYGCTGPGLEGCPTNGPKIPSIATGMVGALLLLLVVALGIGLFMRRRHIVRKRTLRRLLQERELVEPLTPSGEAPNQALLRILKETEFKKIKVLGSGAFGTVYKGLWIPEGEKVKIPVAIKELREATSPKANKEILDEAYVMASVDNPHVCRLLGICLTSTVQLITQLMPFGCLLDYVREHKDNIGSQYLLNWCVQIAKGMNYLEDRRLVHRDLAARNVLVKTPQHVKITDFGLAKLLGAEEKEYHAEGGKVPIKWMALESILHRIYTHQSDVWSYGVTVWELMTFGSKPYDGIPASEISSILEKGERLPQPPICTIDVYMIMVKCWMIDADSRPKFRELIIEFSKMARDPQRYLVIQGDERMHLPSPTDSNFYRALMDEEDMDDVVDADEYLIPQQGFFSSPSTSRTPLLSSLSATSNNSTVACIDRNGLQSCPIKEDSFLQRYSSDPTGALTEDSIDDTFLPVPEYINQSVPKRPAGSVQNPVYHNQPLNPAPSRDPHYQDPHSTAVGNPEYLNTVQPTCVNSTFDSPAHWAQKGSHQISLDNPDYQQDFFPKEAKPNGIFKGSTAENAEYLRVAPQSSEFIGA
logD (physchem [1]),"half-life at 2 h, 1 µM (physchem [2]) [min]","microsomal CLint at […], 1 µM (in vitro) [µL/min/mg]",IC50 [3] [µM],SMILES,Ratio IC50 (Homo sapiens)
2.2,,,,C=CC(=O)N1C[C@@H]2CN(c3nc(Nc4cnn(C)c4)c4ncn(C(C)C)c4n3)C[C@@H]2C1,16
,21,,,C=CC(=O)Nc1cc2c(Nc3ccc(F)c(Cl)c3)ncnc2cc1OCCCN1CCOCC1 [CANERTINIB],
3.5,,81,,C=CC(=O)N[C@@H]1CN(c2nc(Nc3cn(C)nc3CC)c3ncn(C(C)C)c3n2)C[C@H]1F,
2.5,,,,C=CC(=O)N1CC[C@@H](Nc2nc(Nc3ccc(N4CCN(C)CC4)cc3)c3ncn(C(C)C)c3n2)C1,13
2,,,,C=CC(=O)N[C@@H]1CCN(c2nc(Nc3ccc(N4CCN(C)CC4)cc3)c3ncn(C(C)C)c3n2)C1,
1.8,,,> 10,C=CC(=O)N1CC[C@H](Nc2nc(Nc3ccc(N4CCN(C)CC4)cc3)c3ncn(C(C)C)c3n2)C1,> 35
2.2,,,,C=CC(=O)N[C@H]1CCN(c2nc(Nc3ccc(N4CCN(C)CC4)cc3)c3ncn(C(C)C)c3n2)C1,15
